Measurements published in US10240124B2, “Cell culture substrate comprising a laminin and a cadherin” (BioLamina AB, priority 2011, dated 2019).

Key:
[1] = tested on: hES cells on LN-521; test: Inhibition of survival assay on LN-521; assay type: cell-based, human; settings: medium contained bFGF, FIG. 16
Excerpt: InSolution™ LY 294002 (a specific Akt inhibitor), InSolution™ Wortmannin (a specific PI3K inhibitor), and InSolution™ 98059 (a specific MEK1/Erk inhibitor) were purchased from Calbiochem. Antibodies to phospho-Akt (#4060), total-Akt (#9272), phospho-Erk (#9101), and total-Erk (#9102) were obtained from Cell Signaling Technology. PathScan Phospho-Akt1 sandwich ELISA kit (#7160), PathScan total Akt1 sandwich ELISA kit (#7170), PathScan Phospho-Akt2 sandwich ELISA kit (#7048), and PathScan total Akt2 sandwich ELISA kit (#7046) were also purchased from Cell Signaling Technology. Antibodies to Calnexin (#ab10286) were obtained from Abcam. Function blocking antibodies to various integrin subunits, mouse isotype antibodies, and α-dystroglycan were purchased from Millipore. Since function blocking antibodies to αV (MAB1980) and α6 (MAB1378) were presented in a solution with sodium azide, before the inhibition of survival experiment all the antibodies to alpha integrin subunits were dialyzed thrice against O3 medium for 2 hours each time. Antibodies to Lutheran receptor and α-fetoprotein, as well as rat isotype control antibodies were obtained from R&D Systems. Antibodies to Oct4, Nanog, SSEA-4, smooth muscle actin and MAP-2 were purchased from Millipore. […]

[2] = tested on: hES cells; test: Cell survival assay, 24 hours (Example 2); assay type: cell-based, human; settings: for survival of hES cells 24 hours after plating from single cell suspension: O3 medium, absence of ROCK inhibitor; for survival of dissociated hES cells after 24 hours: quantified survival assay
Experimental: (§1) Briefly, 96-well plates were coated by extracellular matrix proteins as described above and blocked by O3 medium containing bovine serum albumin. The ES cells were plated at cell density of 50,000 cells/cm^2 onto extracellular matrix-coated plates and left to adhere for 1 hour in a cell incubator. After that the plates were washed 3 times with the medium to remove the non-adherent cells, and then the adherent cells were fixed for 20 minutes by 5% glutaraldehyde, stained by 0.1% Crystal Violet. (Kebo Lab, Spanga, Sweden, http://www.kebolab.se). After one hour and 3 washes with water, Crystal Violet was extracted with 10% acetic acid and quantified by measuring optical density at 570 nm. All the experiments were performed in quadruplicate.
The survival assay was performed as described for the cell adhesion assay above, except that the cells were left in the cell incubator for 24 hours. For inhibition of survival assay, the cells were kept in a medium with function blocking antibodies at the concentrations recommended by the manufacturer or pathway inhibitors at concentrations indicated in the text for 30 minutes, and then plated on the coated dishes. All the experiments were performed in quadruplicate.
Pluripotent hES cells express α1, α5, β1, β2 and γ1 laminin chains. To compare the adhesion and clonal survival of hES cells plated from single cell suspension to different coating substrata, hES cells growing as monolayers on LN-511 or as clusters on a feeder layer were trypsinized into single cell suspension in O3 medium and plated on cell culture dishes coated with Matrigel, LN-111, LN-511, LN-521 or a mixture of LN-511 and LN-521, in the absence or presence of a ROCK inhibitor (Y-27632) and analyzed after 24 hours.

[3] = tested on: human ES cells (HS181); test: Cell adhesion assay, Crystal Violet (Example 1); assay type: cell-based; settings: for cells remaining attached / surviving 24 hours after plating: HS181 completely dissociated, FIG. 4
Experimental: Ninety-six-well tissue cell culture plates were coated overnight at 4° C. with sterile solutions of the ECM proteins mouse LN-111 (Invitrogen), human recombinant LN-511, and human recombinant LN-521, all at a concentration of 30 μg/ml (5 μg/cm^2). For control cells, BD Matrigel™ hESC qualified (BD Biosciences) was used according to the manufacturer's instructions.
The assay was performed as described (Extracellular Matrix Protocols, 2000). Briefly, 96-well plates were coated by extracellular matrix proteins as described above and blocked by O3 medium containing bovine serum albumin. The ES cells were plated at a cell density of 600 cell/mm^2 upon extracellular matrix-coated plates and were left to adhere for either 1 hour or 1 day at the cell incubator. Non-adherent cells were washed away, and adherent cells were fixed for 20 min by 5% glutaraldehyde, stained by 0.1% Crystal Violet.

[4] = tested on: human embryonic stem cells; test: Survival of hES cells plated in single cell suspension on precoated dishes (description); assay type: cell-based; settings: O3 medium, 30 Kcells/cm^2
Excerpt: In other aspects, the present disclosure provides a new material, isolated laminin-521, which permits human embryonic stem cell survival after dissociation into single cell suspension. The stem cells were dissociated into single cell suspension by Trypsin-EDTA treatment, pelleted by centrifugation, resuspended into O3 medium, filtered through a 40 μm sieve, and plated at a density of 30 Kcells/cm^2 on cell culture dishes precoated by either isolated laminin-521, laminin-511, or Matrigel. After one day in culture, the cells plated on Matrigel died, as is known in the art.

[5] = tested on: hES cells; test: Cell adhesion assay, 1 hour (Example 2); assay type: cell-based, human; settings: compared with Matrigel or LN-111, not shown
Experimental: Tissue cell culture plates were coated overnight at 4° C. with sterile solutions of the ECM proteins, such as human recombinant LN-521, all at a concentration of 30 μg/ml (5 μg/cm^2). Control plates were coated with Matrigel according to the STEMCELL Technologies' instructions. Prior to use, dishes were pre-warmed in an incubator for one hour after which prewarmed O3 medium was added without additional washing of the dish. After applying a fresh LN-521 solution to a new dish, the remaining LN-521 solution could be used at least once more. All the adhesion, survival, and inhibition of survival experiments were carried out using fresh coating materials.
as §1

[6] = biological target: Integrin α6β1 (Homo sapiens, UniProt P05556+P23229); settings: cited from earlier work
Chain of Integrin α6β1 (P23229 24-1130): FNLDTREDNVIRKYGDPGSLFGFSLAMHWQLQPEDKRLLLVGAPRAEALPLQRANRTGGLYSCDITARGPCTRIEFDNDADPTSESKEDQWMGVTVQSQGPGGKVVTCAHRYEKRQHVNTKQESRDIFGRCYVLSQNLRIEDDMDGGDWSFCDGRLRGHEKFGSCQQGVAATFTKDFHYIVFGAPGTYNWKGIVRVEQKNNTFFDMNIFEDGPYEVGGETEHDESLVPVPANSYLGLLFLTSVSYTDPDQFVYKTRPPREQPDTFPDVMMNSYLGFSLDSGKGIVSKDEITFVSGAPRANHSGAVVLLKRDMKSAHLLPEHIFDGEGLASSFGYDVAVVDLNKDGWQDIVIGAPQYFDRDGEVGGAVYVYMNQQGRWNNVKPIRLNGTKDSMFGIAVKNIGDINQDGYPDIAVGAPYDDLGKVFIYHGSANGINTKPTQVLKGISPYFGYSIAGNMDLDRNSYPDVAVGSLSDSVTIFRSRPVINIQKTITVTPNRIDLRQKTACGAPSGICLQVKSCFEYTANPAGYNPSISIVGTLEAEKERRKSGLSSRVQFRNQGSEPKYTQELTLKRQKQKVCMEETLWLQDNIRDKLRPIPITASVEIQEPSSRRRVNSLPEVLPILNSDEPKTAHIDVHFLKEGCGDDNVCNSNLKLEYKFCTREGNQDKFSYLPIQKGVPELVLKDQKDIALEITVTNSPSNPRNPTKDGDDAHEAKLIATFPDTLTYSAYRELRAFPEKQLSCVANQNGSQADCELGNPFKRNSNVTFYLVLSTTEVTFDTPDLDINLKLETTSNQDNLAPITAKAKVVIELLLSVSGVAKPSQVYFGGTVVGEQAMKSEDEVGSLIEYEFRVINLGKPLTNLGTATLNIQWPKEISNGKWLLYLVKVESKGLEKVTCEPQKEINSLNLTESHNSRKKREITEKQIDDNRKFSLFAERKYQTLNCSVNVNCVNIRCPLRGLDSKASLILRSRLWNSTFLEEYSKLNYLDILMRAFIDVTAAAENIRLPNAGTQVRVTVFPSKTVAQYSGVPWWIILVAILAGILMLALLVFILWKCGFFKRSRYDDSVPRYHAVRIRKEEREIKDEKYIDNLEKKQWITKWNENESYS
Chain of Integrin α6β1 (P05556 21-798): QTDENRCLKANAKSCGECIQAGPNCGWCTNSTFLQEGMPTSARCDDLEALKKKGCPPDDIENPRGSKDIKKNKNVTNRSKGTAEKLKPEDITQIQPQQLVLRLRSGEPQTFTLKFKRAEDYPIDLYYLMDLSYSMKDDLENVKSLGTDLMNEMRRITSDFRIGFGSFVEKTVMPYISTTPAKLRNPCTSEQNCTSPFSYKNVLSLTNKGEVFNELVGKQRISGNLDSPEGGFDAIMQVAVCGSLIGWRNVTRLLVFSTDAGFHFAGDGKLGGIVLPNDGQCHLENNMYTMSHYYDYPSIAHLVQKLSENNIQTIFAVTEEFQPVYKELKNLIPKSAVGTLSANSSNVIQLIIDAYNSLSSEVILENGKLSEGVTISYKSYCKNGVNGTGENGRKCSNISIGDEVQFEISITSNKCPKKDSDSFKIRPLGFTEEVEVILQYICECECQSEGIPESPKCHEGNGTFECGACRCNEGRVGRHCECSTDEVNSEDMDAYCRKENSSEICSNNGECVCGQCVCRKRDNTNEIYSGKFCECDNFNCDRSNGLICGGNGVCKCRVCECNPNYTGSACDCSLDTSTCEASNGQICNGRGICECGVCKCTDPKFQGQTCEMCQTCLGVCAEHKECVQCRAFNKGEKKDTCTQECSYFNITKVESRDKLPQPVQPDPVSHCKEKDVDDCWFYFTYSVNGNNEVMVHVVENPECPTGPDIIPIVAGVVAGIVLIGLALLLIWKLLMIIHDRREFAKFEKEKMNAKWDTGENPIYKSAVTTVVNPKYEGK

[7] = tested on: myosin light chain (MLC); test: Western blot of phosphorylated myosin light chain; assay type: cell-based, human; settings: one and six hours after plating, FIG. 12 and 13
Experimental: HS 181 cells were trypsinized into single cell suspension as described above. For inhibition experiments, the cells were kept in O3 medium with blocking antibodies or pathway inhibitors for 30 minutes and then 450K cells were plated on 35 mm dishes precoated with the appropriate matrix coating. For other experiments, same number of cells was plated directly after trypsinization. […] After two washings in ice-cold PBS, the plates with cells were snap frozen in liquid nitrogen and stored at −80° C. To prepare samples for western blots and ELISA, the plates were slowly thawed and kept on ice with 100-150 μl of lysis buffer (50 mM Tris-HCl, pH7.5, 150 mM NaCl, 0.5% deoxycholate, 0.5% SDS, 1% Triton X-100, 1% Igepal, Complete™ (Roche) and Phospho-Stop™ (Roche)) on top. Then, the cells were scraped, pipetted and sheared through a 27 G ¾″ needle. After that, the cell pellets were clarified by centrifugation at 16,100 rcf for 15 minutes at 4° C. For western blots, 4-12% gradient gels were used for SDS electrophoresis and the proteins were transferred to PVDF membranes. The membrane was hybridized with the antibody of interest according to the manufacturer's instructions. […] For the densitometry analysis the films were scanned at 2,400 dpi and analyzed by the Chemilmager5500 program (1 D-Multi Line densitometry mode). […]

[8] = tested on: Human ES cells; settings: over 3 months; engraftment into SCID mice; cited from earlier work
[9] = tested on: hES cells; test: Clonal survival of individualized hES cells, alkaline phosphatase staining (Example 4); assay type: cell-based, human
Experimental: hES cells were plated in mTeSR1 medium on different coatings at a density of 250 cells per cm^2 and monitored after 5 days in culture using an alkaline phosphatase staining kit.
Next, combinations of laminin-521 and E-Cadherin were tested to determine whether the combinations could sustain clonal survival of the cells. Fixed amounts of laminin-521 were used for the cell culture dish coating in combination with titrated E-Cadherin.
Additional tests were performed to test the effects of various modifications to the mTeSR1 medium. A mixture of E-Cadherin to laminin-521 in a ratio of about 1:10 w/w was used to coat the plates. […] Time-lapse photography of the cells confirmed that laminin-521/E-Cadherin coatings facilitated cell survival through proliferation of the single cells, not through the aggregation of different cells.

[10] = O3 medium without any additives

Molecule: COc1cccc(-c2cc(=O)c3ccccc3o2)c1N [PD 98059]
- hES cell survival 24 hours after plating on LN-521 with pathway inhibitor [1]: did not affect the survival that severely

Molecule: C[C@@H](N)[C@H]1CC[C@H](C(=O)Nc2ccncc2)CC1 [Y-27632, reference compound]
- survival of hES cells 24 hours after plating in the presence of ROCK inhibitor ([2]; Y-27632, all coatings): survived on all surfaces
- cells remaining attached after one day with ROCK inhibitor ([3]; O3 medium treated with Y-27632, five coatings, FIG. 5): remained attached on all 5 coatings

Molecule: LN-111: mouse laminin-111 (Invitrogen), indicated as LN-111 if not otherwise stated
- survival of hES cells 24 hours after plating from single cell suspension [2]: did not survive
- survival of dissociated hES cells after 24 hours [2]: almost no cells had survived
- cells remaining attached / surviving 24 hours after plating [3, 10]: almost no cells remained attached

Molecule: LN-121: human recombinant laminin of α1, β2 and γ1 chains from triple-transfected HEK293 cells
- survival of hES cells 24 hours after plating from single cell suspension [2]: failed to survive

Molecule: LN-511: human recombinant laminin-511, control coating
- survival of human embryonic stem cells after one day in culture [4]: in most cases on laminin-511 survived
- survival of hES cells 24 hours after plating from single cell suspension [2]: did so as single cells
- survival of dissociated hES cells after 24 hours [2]: very few
- spreading of the cells after one hour [5]: clearly better
- cells remaining attached / surviving 24 hours after plating [3, 10]: at a less extent
- adhesion of human ES cells at 1 hour ([3]; O3 medium without any additives, without Y-27632, FIG. 6): roughly the same
- binding affinity of integrin α6β1 compared with LN-111 [6]: higher than that for LN-111
- phosphorylation of MLC compared with cells on Matrigel and LN-111 [7]: even higher
- pluripotency of human ES cells in long-term culture [8]: maintain pluripotency and can generate teratomas

Molecule: albumin: albumin of the mTeSR1 medium, concentration increased 2×
- effect of 2× increase in albumin concentration on clonal survival ([9]; laminin-521/E-Cadherin matrix, mTeSR1): significantly improved clonal survival

Molecule: human recombinant LN-111: human recombinant laminin of α1, β1 and γ1 chains from triple-transfected HEK293 cells
- survival of hES cells 24 hours after plating from single cell suspension [2]: failed to survive

B1: E-Cadherin: epithelial-cadherin, most abundant cadherin isoform on the human ES cell surface; coating protein (protein, UniProt P12830 155-882, looked up)
Cadherin-1: DWVIPPISCPENEKGPFPKNLVQIKSNKDKEGKVFYSITGQGADTPPVGVFIIERETGWLKVTEPLDRERIATYTLFSHAVSSNGNAVEDPMEILITVTDQNDNKPEFTQEVFKGSVMEGALPGTSVMEVTATDADDDVNTYNAAIAYTILSQDPELPDKNMFTINRNTGVISVVTTGLDRESFPTYTLVVQAADLQGEGLSTTATAVITVTDTNDNPPIFNPTTYKGQVPENEANVVITTLKVTDADAPNTPAWEAVYTILNDDGGQFVVTTNPVNNDGILKTAKGLDFEAKQQYILHVAVTNVVPFEVSLTTSTATVTVDVLDVNEAPIFVPPEKRVEVSEDFGVGQEITSYTAQEPDTFMEQKITYRIWRDTANWLEINPDTGAISTRAELDREDFEHVKNSTYTALIIATDNGSPVATGTGTLLLILSDVNDNAPIPEPRTIFFCERNPKPQVINIIDADLPPNTSPFTAELTHGASANWTIQYNDPTQESIILKPKMALEVGDYKINLKLMDNQNKDQVTTLEVSVCDCEGAAGVCRKAQPVEAGLQIPAILGILGGILALLILILLLLLFLRRRAVVKEPLLPPEDDTRDNVYYYDEEGGGEEDQDFDLSQLHRGLDARPEVTRNDVAPTLMSVPRYLPRPANPDEIGNFIDENLKAADTDPTAPPYDSLLVFDYEGSGSEAASLSSLNSSESDKDQDYDYLNEWGNRFKKLADMYGGGEDD
- clonal survival of individualized hES cells ([9]; mTeSR1, 250 cells per cm^2, 5 days): Neither laminin-521 nor E-Cadherin alone permitted efficient clonal survival
